Where two headings read alike, the source gives them in different places.
Experiments:
CDK1/Cyclin E1 = CDK1/Cyclin E1 (Homo sapiens, UniProt P06493); assay: NanoBRET live-cell target engagement, CDK1-NanoLuc/Cyclin E1 in HEK-293; type: binding; conditions: CDK1/E1, read-out: Inhibition at 10µM (%)
CDK12/Cyclin K = CDK12/Cyclin K (Homo sapiens, UniProt Q9NYV4); assay: NanoBRET live-cell target engagement, CDK12-NanoLuc/Cyclin K in HEK-293; type: binding; conditions: CDK12/K, read-out: Inhibition at 10µM (%)
CDK18/Cyclin Y = CDK18/Cyclin Y (Homo sapiens, UniProt Q07002); assay: NanoBRET live-cell target engagement, CDK18-NanoLuc/Cyclin Y in HEK-293; type: binding; conditions: CDK18/Y; for IC50: read-out: IC50; for inhibition at 10 µM: read-out: Inhibition at 10µM (%)
CDK7 = CDK7 (Homo sapiens, UniProt P50613); assay: NanoBRET live-cell target engagement, NanoLuc-CDK7 in HEK-293; type: binding; conditions: for inhibition at 10 µM: read-out: Inhibition at 10µM (%)
CDK11A/Cyclin L2 = molecular target: T1, CDK11A/Cyclin L2 (Homo sapiens, UniProt Q9UQ88); assay: NanoBRET live-cell target engagement, CDK11A-NanoLuc/Cyclin L2 in HEK-293; type: binding; conditions: CDK11a/L2, read-out: Inhibition at 10µM (%)
T1 sequence (Q9UQ88 1-783): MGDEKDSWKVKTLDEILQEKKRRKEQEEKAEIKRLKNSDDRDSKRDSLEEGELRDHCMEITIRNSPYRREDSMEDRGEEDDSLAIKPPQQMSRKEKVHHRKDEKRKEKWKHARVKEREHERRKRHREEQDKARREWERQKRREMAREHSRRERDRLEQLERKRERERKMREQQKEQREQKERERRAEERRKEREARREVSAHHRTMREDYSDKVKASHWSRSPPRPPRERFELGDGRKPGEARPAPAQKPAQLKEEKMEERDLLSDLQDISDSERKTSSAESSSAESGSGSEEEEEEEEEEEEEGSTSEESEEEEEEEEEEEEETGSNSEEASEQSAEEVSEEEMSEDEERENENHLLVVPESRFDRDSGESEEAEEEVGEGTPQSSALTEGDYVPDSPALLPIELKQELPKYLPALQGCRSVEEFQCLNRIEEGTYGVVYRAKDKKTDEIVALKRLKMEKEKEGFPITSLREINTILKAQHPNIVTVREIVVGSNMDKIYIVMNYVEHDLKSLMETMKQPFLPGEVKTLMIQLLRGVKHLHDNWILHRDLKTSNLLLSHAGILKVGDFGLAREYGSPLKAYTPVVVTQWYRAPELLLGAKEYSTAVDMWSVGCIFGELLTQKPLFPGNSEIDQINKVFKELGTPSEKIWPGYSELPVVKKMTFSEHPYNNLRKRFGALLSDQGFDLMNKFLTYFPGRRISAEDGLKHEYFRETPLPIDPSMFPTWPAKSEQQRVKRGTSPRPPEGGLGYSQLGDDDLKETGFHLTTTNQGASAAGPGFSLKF

CDK16/Cyclin Y = CDK16/Cyclin Y (Homo sapiens, UniProt Q00536); assay: NanoBRET live-cell target engagement, CDK16-NanoLuc/Cyclin Y in HEK-293; type: binding; conditions: CDK16/Y; for IC50: read-out: IC50; for inhibition at 10 µM: read-out: Inhibition at 10µM (%)
CDK13/Cyclin K = CDK13/Cyclin K (Homo sapiens, UniProt Q14004); assay: NanoBRET live-cell target engagement, CDK13-NanoLuc/Cyclin K in HEK-293; type: binding; conditions: CDK13/K, read-out: Inhibition at 10µM (%)
CDK11B/Cyclin L2 = CDK11B/Cyclin L2 (Homo sapiens, UniProt P21127); assay: NanoBRET live-cell target engagement, CDK11B-NanoLuc/Cyclin L2 in HEK-293; type: binding; conditions: CDK11b/L2, read-out: Inhibition at 10µM (%)
CDK20/Cyclin H = CDK20/Cyclin H (Homo sapiens, UniProt Q8IZL9); assay: NanoBRET live-cell target engagement, NanoLuc-CDK20/Cyclin H in HEK-293; type: binding; conditions: CDK20/H, read-out: Inhibition at 10µM (%)
CDK6/Cyclin D1 = CDK6/Cyclin D1 (Homo sapiens, UniProt Q00534); assay: NanoBRET live-cell target engagement, NanoLuc-CDK6/Cyclin D1 in HEK-293; type: binding; conditions: CDK6/D1, read-out: Inhibition at 10µM (%)
CDK5/CDK5R1 = CDK5/CDK5R1 (Homo sapiens, UniProt Q00535); assay: NanoBRET live-cell target engagement, CDK5-NanoLuc/CDK5R1 in HEK-293; type: binding; conditions: CDK5/CDK5R1, read-out: Inhibition at 10µM (%)
CDK19/Cyclin C = CDK19/Cyclin C (Homo sapiens, UniProt Q9BWU1); assay: NanoBRET live-cell target engagement, NanoLuc-CDK19/Cyclin C in HEK-293; conditions: for inhibition at 10 µM: read-out: Inhibition at 10µM (%), CDK19/C
CDK9/Cyclin K = CDK9/Cyclin K (Homo sapiens, UniProt P50750); assay: NanoBRET live-cell target engagement, NanoLuc-CDK9/Cyclin K in HEK-293; type: binding; conditions: CDK9/K, read-out: Inhibition at 10µM (%)
CDK17/Cyclin Y = CDK17/Cyclin Y (Homo sapiens, UniProt Q00537); assay: NanoBRET live-cell target engagement, CDK17-NanoLuc/Cyclin Y in HEK-293; type: binding; conditions: CDK17/Y; for IC50: read-out: IC50; for inhibition at 10 µM: read-out: Inhibition at 10µM (%)
CDK8/Cyclin C = CDK8/Cyclin C (Homo sapiens, UniProt P49336); assay: NanoBRET live-cell target engagement, NanoLuc-CDK8/Cyclin C in HEK-293; type: binding; conditions: for inhibition at 10 µM: read-out: Inhibition at 10µM (%)
CDK4/Cyclin D1 = CDK4/Cyclin D1 (Homo sapiens, UniProt P11802); assay: NanoBRET live-cell target engagement, NanoLuc-CDK4/Cyclin D1 in HEK-293; type: binding; conditions: CDK4/D1, read-out: Inhibition at 10µM (%)
CDK15/Cyclin Y = CDK15/Cyclin Y (Homo sapiens, UniProt Q96Q40); assay: NanoBRET live-cell target engagement, NanoLuc-CDK15/Cyclin Y in HEK-293; type: binding; conditions: CDK15/Y, read-out: Inhibition at 10µM (%)
CDK15/Cyclin Y, sequence (Q96Q40 whole entry): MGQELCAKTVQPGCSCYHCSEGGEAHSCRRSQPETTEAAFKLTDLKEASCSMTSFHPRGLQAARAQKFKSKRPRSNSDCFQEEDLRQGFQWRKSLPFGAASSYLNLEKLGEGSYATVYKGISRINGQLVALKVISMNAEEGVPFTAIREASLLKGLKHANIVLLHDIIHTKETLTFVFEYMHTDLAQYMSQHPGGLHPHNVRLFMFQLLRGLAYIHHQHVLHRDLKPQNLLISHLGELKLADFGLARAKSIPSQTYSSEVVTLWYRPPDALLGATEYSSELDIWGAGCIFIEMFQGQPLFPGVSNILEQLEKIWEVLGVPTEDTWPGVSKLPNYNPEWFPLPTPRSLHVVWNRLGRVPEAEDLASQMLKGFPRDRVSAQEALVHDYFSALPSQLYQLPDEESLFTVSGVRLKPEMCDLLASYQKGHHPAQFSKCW
CDK15/Cyclin Y, sequence (Q8ND76 whole entry partner): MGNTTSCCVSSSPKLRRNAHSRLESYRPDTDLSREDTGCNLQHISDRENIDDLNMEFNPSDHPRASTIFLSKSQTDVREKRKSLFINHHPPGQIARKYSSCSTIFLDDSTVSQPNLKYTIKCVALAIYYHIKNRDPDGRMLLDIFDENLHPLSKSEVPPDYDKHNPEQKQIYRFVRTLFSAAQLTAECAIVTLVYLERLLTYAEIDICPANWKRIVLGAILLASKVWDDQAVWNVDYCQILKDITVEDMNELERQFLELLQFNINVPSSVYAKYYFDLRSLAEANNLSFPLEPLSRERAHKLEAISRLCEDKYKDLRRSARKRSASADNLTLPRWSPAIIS

CDK4/Cyclin D1, sequence (P11802 whole entry): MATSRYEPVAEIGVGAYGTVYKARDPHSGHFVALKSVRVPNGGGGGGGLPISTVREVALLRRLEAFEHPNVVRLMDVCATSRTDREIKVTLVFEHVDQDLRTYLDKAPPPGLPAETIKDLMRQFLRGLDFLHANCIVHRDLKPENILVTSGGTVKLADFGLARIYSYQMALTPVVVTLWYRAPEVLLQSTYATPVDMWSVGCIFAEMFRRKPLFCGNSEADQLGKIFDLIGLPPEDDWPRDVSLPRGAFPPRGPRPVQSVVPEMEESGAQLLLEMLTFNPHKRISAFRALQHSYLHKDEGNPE
CDK4/Cyclin D1, sequence (P24385 whole entry partner): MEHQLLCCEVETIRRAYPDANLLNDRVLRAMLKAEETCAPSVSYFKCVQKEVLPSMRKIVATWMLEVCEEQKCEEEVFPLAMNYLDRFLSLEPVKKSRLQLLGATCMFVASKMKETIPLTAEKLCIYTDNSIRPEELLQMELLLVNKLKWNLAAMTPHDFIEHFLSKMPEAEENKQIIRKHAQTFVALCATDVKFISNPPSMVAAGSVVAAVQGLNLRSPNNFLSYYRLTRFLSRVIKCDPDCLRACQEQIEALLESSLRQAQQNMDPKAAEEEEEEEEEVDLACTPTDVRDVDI
CDK18/Cyclin Y, sequence (Q07002 whole entry): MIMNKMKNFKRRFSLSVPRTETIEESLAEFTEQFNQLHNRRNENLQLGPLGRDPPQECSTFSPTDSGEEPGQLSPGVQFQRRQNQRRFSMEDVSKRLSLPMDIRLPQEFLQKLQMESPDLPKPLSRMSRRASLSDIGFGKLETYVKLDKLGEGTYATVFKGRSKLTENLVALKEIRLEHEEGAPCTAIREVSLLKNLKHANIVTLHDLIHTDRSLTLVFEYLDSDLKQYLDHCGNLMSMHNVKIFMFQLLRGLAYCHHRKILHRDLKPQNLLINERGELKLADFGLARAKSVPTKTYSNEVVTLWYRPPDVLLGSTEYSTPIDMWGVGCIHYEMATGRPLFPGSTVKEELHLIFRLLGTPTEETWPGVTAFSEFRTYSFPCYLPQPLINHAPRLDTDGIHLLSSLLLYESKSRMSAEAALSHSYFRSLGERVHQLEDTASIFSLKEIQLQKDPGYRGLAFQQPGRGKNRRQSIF
CDK18/Cyclin Y, sequence (Q8ND76 whole entry partner): as the sequence (Q8ND76 whole entry partner) above
CDK5/CDK5R1, sequence (Q00535 whole entry): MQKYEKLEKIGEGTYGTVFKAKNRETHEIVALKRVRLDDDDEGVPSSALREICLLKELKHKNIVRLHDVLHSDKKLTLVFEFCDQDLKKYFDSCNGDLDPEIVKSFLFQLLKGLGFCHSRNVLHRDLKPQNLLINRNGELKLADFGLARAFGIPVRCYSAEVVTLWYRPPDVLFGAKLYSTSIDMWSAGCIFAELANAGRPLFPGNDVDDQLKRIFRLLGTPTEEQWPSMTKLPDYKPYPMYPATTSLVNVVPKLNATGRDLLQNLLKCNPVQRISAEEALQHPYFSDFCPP
CDK5/CDK5R1, sequence (Q15078 whole entry partner): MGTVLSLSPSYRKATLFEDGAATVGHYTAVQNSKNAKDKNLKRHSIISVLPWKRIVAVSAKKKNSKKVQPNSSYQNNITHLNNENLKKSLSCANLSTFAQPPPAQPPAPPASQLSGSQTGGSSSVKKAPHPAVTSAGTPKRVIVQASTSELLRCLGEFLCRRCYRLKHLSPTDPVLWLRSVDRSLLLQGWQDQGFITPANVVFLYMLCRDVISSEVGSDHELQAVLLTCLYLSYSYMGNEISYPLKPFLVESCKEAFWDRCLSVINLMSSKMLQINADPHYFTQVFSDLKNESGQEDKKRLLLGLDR
CDK9/Cyclin K, sequence (P50750 whole entry): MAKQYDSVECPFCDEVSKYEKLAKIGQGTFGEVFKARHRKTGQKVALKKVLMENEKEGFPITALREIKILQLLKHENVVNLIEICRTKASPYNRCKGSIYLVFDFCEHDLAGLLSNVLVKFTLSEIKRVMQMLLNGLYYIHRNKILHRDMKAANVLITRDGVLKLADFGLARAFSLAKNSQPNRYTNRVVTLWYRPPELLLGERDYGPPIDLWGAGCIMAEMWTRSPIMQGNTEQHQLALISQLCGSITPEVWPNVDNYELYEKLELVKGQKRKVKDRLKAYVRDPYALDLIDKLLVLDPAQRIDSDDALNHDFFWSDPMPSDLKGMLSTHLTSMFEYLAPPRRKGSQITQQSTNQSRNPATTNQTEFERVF
CDK9/Cyclin K, sequence (O75909 whole entry partner): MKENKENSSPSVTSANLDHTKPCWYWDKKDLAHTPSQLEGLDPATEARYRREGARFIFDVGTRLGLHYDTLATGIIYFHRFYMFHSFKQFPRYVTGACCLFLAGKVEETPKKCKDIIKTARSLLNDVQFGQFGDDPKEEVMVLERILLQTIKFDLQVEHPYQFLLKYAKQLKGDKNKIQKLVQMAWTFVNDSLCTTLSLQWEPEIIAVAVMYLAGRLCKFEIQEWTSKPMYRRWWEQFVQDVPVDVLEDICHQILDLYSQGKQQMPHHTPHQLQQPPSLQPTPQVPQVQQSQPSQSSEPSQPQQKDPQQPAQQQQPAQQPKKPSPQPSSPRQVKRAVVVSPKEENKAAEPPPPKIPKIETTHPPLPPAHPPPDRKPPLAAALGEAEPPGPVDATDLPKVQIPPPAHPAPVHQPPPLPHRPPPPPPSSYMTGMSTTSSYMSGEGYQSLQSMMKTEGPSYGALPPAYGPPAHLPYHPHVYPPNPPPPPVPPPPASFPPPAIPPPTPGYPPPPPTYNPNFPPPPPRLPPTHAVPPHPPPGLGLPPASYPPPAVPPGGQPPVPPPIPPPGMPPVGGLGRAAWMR
CDK19/Cyclin C, sequence (Q9BWU1 whole entry): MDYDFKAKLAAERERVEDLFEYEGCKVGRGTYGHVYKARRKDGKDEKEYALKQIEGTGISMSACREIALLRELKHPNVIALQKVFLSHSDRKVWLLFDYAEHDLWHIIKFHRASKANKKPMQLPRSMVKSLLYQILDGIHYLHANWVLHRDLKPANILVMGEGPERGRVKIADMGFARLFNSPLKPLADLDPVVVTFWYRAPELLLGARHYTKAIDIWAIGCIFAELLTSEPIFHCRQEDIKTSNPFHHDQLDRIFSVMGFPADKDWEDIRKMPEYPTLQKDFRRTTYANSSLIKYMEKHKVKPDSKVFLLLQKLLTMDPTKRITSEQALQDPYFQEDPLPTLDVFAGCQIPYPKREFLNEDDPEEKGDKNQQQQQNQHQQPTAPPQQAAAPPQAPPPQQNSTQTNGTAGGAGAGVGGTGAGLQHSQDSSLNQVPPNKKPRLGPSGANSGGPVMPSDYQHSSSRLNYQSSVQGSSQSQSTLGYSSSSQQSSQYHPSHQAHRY
CDK19/Cyclin C, sequence (P24863 whole entry partner): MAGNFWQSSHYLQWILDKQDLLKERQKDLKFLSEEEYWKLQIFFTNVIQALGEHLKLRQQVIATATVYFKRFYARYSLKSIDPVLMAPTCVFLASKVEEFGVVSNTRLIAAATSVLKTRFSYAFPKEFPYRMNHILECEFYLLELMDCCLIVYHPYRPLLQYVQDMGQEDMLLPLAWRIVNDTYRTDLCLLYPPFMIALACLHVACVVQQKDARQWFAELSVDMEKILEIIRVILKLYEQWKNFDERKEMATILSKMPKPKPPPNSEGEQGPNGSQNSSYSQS
CDK7, sequence (P50613 whole entry): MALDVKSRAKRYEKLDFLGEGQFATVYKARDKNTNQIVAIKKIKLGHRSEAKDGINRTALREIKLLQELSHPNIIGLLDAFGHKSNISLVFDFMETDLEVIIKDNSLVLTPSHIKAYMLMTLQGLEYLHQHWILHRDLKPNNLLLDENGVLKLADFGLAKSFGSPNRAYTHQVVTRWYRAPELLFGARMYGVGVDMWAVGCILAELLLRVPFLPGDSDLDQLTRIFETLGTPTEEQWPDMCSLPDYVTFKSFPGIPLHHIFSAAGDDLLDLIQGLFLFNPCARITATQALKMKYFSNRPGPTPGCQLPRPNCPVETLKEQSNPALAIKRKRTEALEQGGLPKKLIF

- inhibition at 10 µM (CDK1/Cyclin E1; average): 70.4%
- inhibition at 10 µM (CDK1/Cyclin E1; experiment 1): 66.2%
- inhibition at 10 µM (CDK1/Cyclin E1; experiment 2): 74.6%
- inhibition at 10 µM (CDK12/Cyclin K; average): 43.7%
- inhibition at 10 µM (CDK12/Cyclin K; experiment 1): 39%
- inhibition at 10 µM (CDK12/Cyclin K; experiment 2): 48.3%
- IC50 (CDK18/Cyclin Y; average (± SEM where n=3)): 400 ± 100 nM
- inhibition at 10 µM (CDK18/Cyclin Y; average): 93.7%
- IC50 (CDK18/Cyclin Y; experiment 1): 144 nM
- inhibition at 10 µM (CDK18/Cyclin Y; experiment 1): 88.2%
- IC50 (CDK18/Cyclin Y; experiment 2): 408 nM
- inhibition at 10 µM (CDK18/Cyclin Y; experiment 2): 99.2%
- IC50 (CDK18/Cyclin Y; experiment 3): 610 nM
- inhibition at 10 µM (CDK7; CDK7, average): 81.8%
- IC50 (CDK7; CDK7, experiment 1, read-out: IC50): 76 nM
- inhibition at 10 µM (CDK7; CDK7, experiment 1): 83.6%
- IC50 (CDK7; CDK7, experiment 2, read-out: IC50): 59 nM
- inhibition at 10 µM (CDK7; CDK7, experiment 2): 79.9%
- IC50 (CDK7; CDK7, experiment 3, read-out: IC50): 55 nM
- IC50 (CDK7; live HEK-293, 2 h, mean ± S.E.M. (n=3) or mean (n=2), read-out: IC50 for CDK/cyclin complexes, CDK7): 63 nM
- inhibition at 10 µM (CDK11A/Cyclin L2; average): 14.5%
- inhibition at 10 µM (CDK11A/Cyclin L2; experiment 1): 19.2%
- inhibition at 10 µM (CDK11A/Cyclin L2; experiment 2): 9.8%
- IC50 (CDK16/Cyclin Y; average (± SEM where n=3)): 260 ± 70 nM
- IC50 (CDK16/Cyclin Y; experiment 1): 140 nM
- inhibition at 10 µM (CDK16/Cyclin Y; experiment 1): 74.3%
- IC50 (CDK16/Cyclin Y; experiment 2): 365 nM
- inhibition at 10 µM (CDK16/Cyclin Y; experiment 2): 80.7%
- IC50 (CDK16/Cyclin Y; experiment 3): 270 nM
- inhibition at 10 µM (CDK13/Cyclin K; average): 36.6%
- inhibition at 10 µM (CDK13/Cyclin K; experiment 1): 32.4%
- inhibition at 10 µM (CDK13/Cyclin K; experiment 2): 40.8%
- inhibition at 10 µM (CDK11B/Cyclin L2; average): 9.9%
- inhibition at 10 µM (CDK11B/Cyclin L2; experiment 1): 15.5%
- inhibition at 10 µM (CDK11B/Cyclin L2; experiment 2): 4.3%
- inhibition at 10 µM (CDK20/Cyclin H; experiment 1): 40%
- inhibition at 10 µM (CDK20/Cyclin H; experiment 2): 64.4%
- inhibition at 10 µM (CDK6/Cyclin D1; average): 35.2%
- inhibition at 10 µM (CDK6/Cyclin D1; experiment 1): 23.8%
- inhibition at 10 µM (CDK6/Cyclin D1; experiment 2): 46.5%
- inhibition at 10 µM (CDK5/CDK5R1; average): 23.7%
- inhibition at 10 µM (CDK5/CDK5R1; experiment 1): 27.8%
- inhibition at 10 µM (CDK5/CDK5R1; experiment 2): 19.6%
- IC50 (CDK19/Cyclin C; IC50 (nM), CDK19/C, experiment 1): 1.4 nM
- IC50 (CDK19/Cyclin C; IC50 (nM), CDK19/C, experiment 2): 2.3 nM
- IC50 (CDK19/Cyclin C; IC50 (nM), CDK19/C, experiment 3): 0.5 nM
- IC50 (CDK19/Cyclin C; IC50 (nM), CDK19/Y (so in the source), average (± SEM where n=3)): 1.4 ± 0.5 nM
- IC50 (CDK19/Cyclin C; IC50 for CDK/cyclin complexes, CDK19/C, live HEK-293, 2 h, mean ± S.E.M. (n=3) or mean (n=2)): 1.4 ± 0.5 nM
- inhibition at 10 µM (CDK19/Cyclin C; average): 96.4%
- inhibition at 10 µM (CDK19/Cyclin C; experiment 1): 95.5%
- inhibition at 10 µM (CDK19/Cyclin C; experiment 2): 97.3%
- inhibition at 10 µM (CDK9/Cyclin K; average): 85.1%
- inhibition at 10 µM (CDK9/Cyclin K; experiment 1): 84.3%
- inhibition at 10 µM (CDK9/Cyclin K; experiment 2): 85.8%
- IC50 (CDK17/Cyclin Y; average (± SEM where n=3)): 190 ± 60 nM
- inhibition at 10 µM (CDK17/Cyclin Y; average): 89.9%
- IC50 (CDK17/Cyclin Y; experiment 1): 80 nM
- inhibition at 10 µM (CDK17/Cyclin Y; experiment 1): 89.1%
- IC50 (CDK17/Cyclin Y; experiment 2): 281 nM
- inhibition at 10 µM (CDK17/Cyclin Y; experiment 2): 90.7%
- IC50 (CDK17/Cyclin Y; experiment 3): 200 nM
- inhibition at 10 µM (CDK8/Cyclin C; CDK8/C, average): 95.6%
- IC50 (CDK8/Cyclin C; CDK8/C, experiment 1, read-out: IC50): 2.1 nM
- inhibition at 10 µM (CDK8/Cyclin C; CDK8/C, experiment 1): 96.7%
- IC50 (CDK8/Cyclin C; CDK8/C, experiment 2, read-out: IC50): 5 nM
- inhibition at 10 µM (CDK8/Cyclin C; CDK8/C, experiment 2): 94.5%
- IC50 (CDK8/Cyclin C; CDK8/C, experiment 3, read-out: IC50): 2.2 nM
- IC50 (CDK8/Cyclin C; live HEK-293, 2 h, mean ± S.E.M. (n=3) or mean (n=2), read-out: IC50 for CDK/cyclin complexes, CDK8/C): 3 nM
- inhibition at 10 µM (CDK4/Cyclin D1; average): 78.8%
- inhibition at 10 µM (CDK4/Cyclin D1; experiment 1): 79.9%
- inhibition at 10 µM (CDK4/Cyclin D1; experiment 2): 77.6%
- inhibition at 10 µM (CDK15/Cyclin Y; average): 80.7%
- inhibition at 10 µM (CDK15/Cyclin Y; experiment 1): 82.9%
- inhibition at 10 µM (CDK15/Cyclin Y; experiment 2): 78.6%
Compound: CN1CCN(Cc2ccc(NC(=O)Nc3ccc(Oc4ccnc(N)n4)cc3)cc2C(F)(F)F)CC1 [K03861]
